From PMC6645248 (ACS Omega, 2018)

Assays:
Cyt c = Cyt c (Equus caballus, UniProt P00004); type: biochemical, equine; conditions: for concentration at which an effect on the Cyt c-catalysed reaction starts: [Cyt c] = 15 μg/mL
[1] = biological target: T1, horseradish peroxidase (HRP) (Armoracia rusticana, UniProt P00433); assay: Peroxide-induced inhibition; type: biochemical; conditions: [LH-] = 750 μM; [HRP] = 2 μg/mL; pH 9
T1 sequence (P00433 31-338 limits assumed): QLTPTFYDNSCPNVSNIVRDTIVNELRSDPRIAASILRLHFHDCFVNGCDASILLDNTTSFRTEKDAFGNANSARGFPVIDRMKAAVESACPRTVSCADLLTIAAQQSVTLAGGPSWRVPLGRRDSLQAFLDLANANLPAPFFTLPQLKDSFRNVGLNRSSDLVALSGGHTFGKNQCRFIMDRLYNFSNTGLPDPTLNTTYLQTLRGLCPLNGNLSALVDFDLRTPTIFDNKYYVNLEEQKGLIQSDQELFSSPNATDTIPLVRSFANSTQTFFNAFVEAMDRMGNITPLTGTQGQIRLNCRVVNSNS

HRP [2] = biological target: T2, HRP (Armoracia rusticana, UniProt P00433); assay: Enhancement of the HRP-catalysed luminol reaction by aromatic hydrogen donors; type: biochemical, horseradish; conditions: [H2O2] = 1.1 mM; [LH-] = 750 μM; pH 9
T2 sequence (P00433 31-338 limits assumed): T1 sequence (P00433 31-338 limits assumed)

HRP [3] = biological target: T2, HRP; conditions: [H2O2] of 17.6 mM; cited from earlier work
[4] = [LH-] = 750 μM, [H2O2] = 1.1 mM, pH 9

Cyt c, sequence (P00004 whole entry): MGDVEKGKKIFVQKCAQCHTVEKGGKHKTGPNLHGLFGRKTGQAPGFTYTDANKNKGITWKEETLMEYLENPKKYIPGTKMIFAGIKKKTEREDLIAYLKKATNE

Structure (SMILES)	concentration at which an effect on the Cyt c-catalysed reaction starts (Cyt c; [4])	kind of quenching of Cyt c-catalysed luminescence (kinetics) (Cyt c; [Cyt c] = 20 μg/mL, [LH-] = 750 μM, [H2O2] = 1.1 mM, pH 9)	protection of HRP against high [H2O2] (shift of peroxide inhibition) [1]	IC50 (Cyt c) [µM]	concentration for maximal enhancement of the HRP-catalysed reaction (HRP [2])	concentration for maximal enhancement (HRP [3]) [mM]
NC(=O)C1=CN([C@@H]2O[C@H](COP(=O)([O-])OP(=O)([O-])OC[C@H]3O[C@@H](n4cnc5c(N)ncnc54)[C@H](O)[C@@H]3O)[C@@H](O)[C@H]2O)C=CC1.[Na+].[Na+] [NADH, Nicotinamide–adenine–dinucleotide disodium]	80 µM	permanent luminescence quenching				
N[C@@H](CCC(=O)N[C@@H](CS)C(=O)NCC(=O)O)C(=O)O [GSH, glutathione]	about 10 μM		does not exert a protective effect on HRP	41		
Oc1ccc(I)cc1 [IP, iodophenol]					around 200 μM	4
